From PubChem BioAssay (NCI)
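A five-concentration, 48-hour dose response in 96-well plates underlies each endpoint, interpolated linearly between surrounding concentrations. The concentration for full growth arrest is given as TGI.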

Columns and labels:
Experiment in all cases: NCI tumour cell line growth inhibition, 48 h
NCI-H226 lung = system: NCI-H226 lung
SW-620 colon = system: SW-620 colon
SK-OV-3 ovarian = system: SK-OV-3 ovarian
ACHN renal = system: ACHN renal
MDA-MB-435 = system: MDA-MB-435
CAKI-1 renal = system: CAKI-1 renal
NCI-H23 lung = system: NCI-H23 lung
IGROV1 ovarian = system: IGROV1 ovarian
EKVX NSCLC = system: EKVX NSCLC
U251 CNS = system: U251 CNS
SF-295 CNS = system: SF-295 CNS
A549 NSCLC = system: A549 NSCLC
MALME-3M melanoma = system: MALME-3M melanoma
HT29 colon = system: HT29 colon
KM12 colon = system: KM12 colon
SK-MEL-5 melanoma = system: SK-MEL-5 melanoma
NCI-H460 lung = system: NCI-H460 lung
HCT-15 colon = system: HCT-15 colon
RXF 393 renal = system: RXF 393 renal
BT-549 breast = system: BT-549 breast
MOLT-4 leukemia = system: MOLT-4 leukemia
786-0 renal = system: 786-0 renal
TK-10 renal = system: TK-10 renal
K-562 leukemia = system: K-562 leukemia
MDA-MB-231 breast = system: MDA-MB-231 breast
UO-31 renal = system: UO-31 renal
M14 melanoma = system: M14 melanoma
OVCAR-4 ovarian = system: OVCAR-4 ovarian
NCI/ADR-RES ovarian = system: NCI/ADR-RES ovarian
NCI-H522 lung = system: NCI-H522 lung
SN12C renal = system: SN12C renal
SK-MEL-2 melanoma = system: SK-MEL-2 melanoma
UACC-62 melanoma = system: UACC-62 melanoma
SF-268 CNS = system: SF-268 CNS
RPMI-8226 leukemia = system: RPMI-8226 leukemia
SNB-19 CNS = system: SNB-19 CNS
HCC-2998 colon = system: HCC-2998 colon
SK-MEL-28 melanoma = system: SK-MEL-28 melanoma
UACC-257 melanoma = system: UACC-257 melanoma
DU-145 prostate = system: DU-145 prostate
SNB-75 CNS = system: SNB-75 CNS
PC-3 prostate = system: PC-3 prostate
COLO 205 colon = system: COLO 205 colon
HCT-116 colon = system: HCT-116 colon
OVCAR-5 ovarian = system: OVCAR-5 ovarian
MCF7 breast = system: MCF7 breast
A498 renal = system: A498 renal
HOP-92 NSCLC = system: HOP-92 NSCLC

With `Nn1c(CCCCCCCCc2nnc(COc3ccc4ccccc4c3O)n2N)nnc1COc1ccc2ccccc2c1O` the TGI (NCI-H226 lung) was 79.1 µM, the TGI (SW-620 colon) was > 100 µM and the TGI (SK-OV-3 ovarian) was > 100 µM. For the same compound, the TGI (ACHN renal) was > 100 µM, the TGI (MDA-MB-435) was > 100 µM and the TGI (CAKI-1 renal) was 41.8 µM. For the same compound, the TGI (NCI-H23 lung) was 41.6 µM, the TGI (IGROV1 ovarian) was 38.3 µM and the TGI (EKVX NSCLC) was > 100 µM. The TGI (U251 CNS) was > 100 µM, the TGI (SF-295 CNS) was 98.1 µM and the TGI (A549 NSCLC) was > 100 µM. For the same compound, the TGI (MALME-3M melanoma) was > 100 µM, the TGI (HT29 colon) was > 100 µM and the TGI (KM12 colon) was 49.4 µM. The TGI (SK-MEL-5 melanoma) was 37.5 µM, the TGI (NCI-H460 lung) was > 100 µM and the TGI (HCT-15 colon) was > 100 µM. The TGI (RXF 393 renal) was 80.3 µM, the TGI (BT-549 breast) was 69.5 µM and the TGI (MOLT-4 leukemia) was > 100 µM. For the same compound, the TGI (786-0 renal) was > 100 µM, the TGI (TK-10 renal) was > 100 µM and the TGI (K-562 leukemia) was > 100 µM. The TGI (MDA-MB-231 breast) was 76.9 µM, the TGI (UO-31 renal) was > 100 µM and the TGI (M14 melanoma) was 78.4 µM. For the same compound, the TGI (OVCAR-4 ovarian) was > 100 µM, the TGI (NCI/ADR-RES ovarian) was 60.7 µM and the TGI (NCI-H522 lung) was 42 µM. The TGI (SN12C renal) was > 100 µM, the TGI (SK-MEL-2 melanoma) was > 100 µM and the TGI (UACC-62 melanoma) was > 100 µM. For the same compound, the TGI (SF-268 CNS) was > 100 µM, the TGI (RPMI-8226 leukemia) was 99.2 µM and the TGI (SNB-19 CNS) was > 100 µM. The TGI (HCC-2998 colon) was 67.7 µM, the TGI (SK-MEL-28 melanoma) was > 100 µM and the TGI (UACC-257 melanoma) was > 100 µM. For the same compound, the TGI (DU-145 prostate) was > 100 µM, the TGI (SNB-75 CNS) was > 100 µM and the TGI (PC-3 prostate) was > 100 µM. It also gave a TGI (COLO 205 colon) of 35.1 µM, a TGI (HCT-116 colon) of 29.3 µM and a TGI (OVCAR-5 ovarian) of 37 µM. For the same compound, the TGI (MCF7 breast) was > 100 µM, the TGI (A498 renal) was > 100 µM and the TGI (HOP-92 NSCLC) was 60 µM.
